For orientation: MIC means the lowest concentration found to suppress growth. As a reminder, the MIC50 is an inhibitory concentration at the 50% level, which refers to growth in some studies and to a panel of isolates in others. Broadly, the MIC90 is an inhibitory concentration at the 90% level, which refers to growth in some studies and to a panel of isolates in others.

In assay [1] the test system is Mycoplasmoides pneumoniae. In words: Antimicrobial activity against Mycoplasma pneumoniae FH by microdilution method. It is filed as functional. For orientation: In broth dilution the organism is exposed to a series of concentrations in liquid medium.
The test system of assay [2] is Mycoplasmoides pneumoniae. Put plainly: Antimicrobial activity against Mycoplasma pneumoniae clinical isolate harboring point mutations in 23S rRNA at positions 2063 and 2064 isolated from human respiratory tract by microdilution method. It is filed as functional.

Converted amounts (≈) assume the structure as drawn.

In assay [1], `CC[C@H]1OC(=O)[C@H](C)[C@@H](O[C@H]2C[C@@](C)(OC)[C@@H](O)[C@H](C)O2)[C@H](C)[C@@H](O[C@@H]2O[C@H](C)C[C@H](N(C)C)[C@H]2O)[C@](C)(O)C[C@@H](C)CN(C)[C@H](C)[C@@H](O)[C@]1(C)O` [AZITHROMYCIN] came in with an MIC of 0.001 µg/mL (≈ 0.00134 µM). In assay [2], this compound gave an MIC of 0.001 µg/mL (≈ 0.00134 µM), an MIC50 of 128 µg/mL (≈ 171 µM) and an MIC90 of 256 µg/mL (≈ 342 µM).

In the case of `CC[C@H]1OC(=O)[C@H](C)[C@@H](O[C@H]2C[C@@](C)(OC)[C@@H](O)[C@H](C)O2)[C@H](C)[C@@H](O[C@@H]2O[C@H](C)C[C@H](N(C)C)[C@H]2O)[C@](C)(O)C[C@@H](C)C(=O)[C@H](C)[C@@H](O)[C@]1(C)O` [ERYTHROMYCIN], in assay [1], it took 0.01 µg/mL (≈ 0.0136 µM) to inhibit growth (MIC). Further, in assay [2], inhibition of growth (MIC) required 0.01 µg/mL (≈ 0.0136 µM), the MIC50 came out at 128 µg/mL (≈ 174 µM) and the MIC90 was 512 µg/mL (≈ 698 µM).

In assay [1], `CO[C@@H]1[C@@H](O[C@@H]2O[C@H](C)[C@@H](O[C@H]3C[C@@](C)(O)[C@@H](OC(=O)CC(C)C)[C@H](C)O3)[C@H](N(C)C)[C@H]2O)[C@@H](CC=O)C[C@@H](C)[C@@H](O)/C=C/C=C/C[C@@H](C)OC(=O)C[C@H]1OC(C)=O` [JOSAMYCIN] displayed an MIC of 0.1 µg/mL (≈ 0.121 µM). In assay [2], this compound gave an MIC of 0.01 µg/mL (≈ 0.0121 µM), an MIC50 of 32 µg/mL (≈ 38.6 µM) and an MIC90 of 64 µg/mL (≈ 77.3 µM).
